In patent publication US20140128472A1, “TREATMENT AND PREVENTION OF DISEASES RELATED TO OXIDATIVE STRESS” (UNIVERSITY OF PÉCS, priority 2011, published 2014):
Entries after “also recorded” stand apart in the source; their conditions may differ.

What was measured:
Akt (PKB) = assay: Erythropoietin-dependent phosphorylation of Akt (PKB) in 3T3-L1 adipocytes (Western blot); format: cell-based, mouse; conditions: 25 mM glucose; various concentrations of erythropoietin
3T3-L1 adipocytes [1] = assay: Erythropoietin-dependent uptake of deoxy-D-glucose into 3T3-L1 adipocytes; format: cell-based, mouse; conditions: 5 mM glucose; various concentrations of EPO
Method: Primary cultures of mouse embryo fibroblasts (3T3-L1) were purchased from ATCC (Manassas, US). Early passages of 3T3-L1 fibroblasts were cultured in Dulbecco's modified Eagle medium ((DMEM, Invitrogen, CAT number: 41966-029; Sigma Aldrich CAT number: D6046) supplemented with 10% Fetal Bovine Serum (Gibco, CAT number: 16170-078), 100 U/ml penicillin and 0.1 mg/ml streptomycin (Gibco, CAT number: 15070-063) and 398 nM p-, m-, or o-Tyr. DMEM contained 25 or 5 mM glucose (depending on the experiment), L-glutamine, and pyruvate. Cells were grown in a humidified incubator at 37° C. and 5% CO2. Differentiation medium consisted of DMEM supplemented with 10% Fetal Bovine Serum (FBS, Gibco, Csertex, Budapest, Hungary, CAT number: 10106-169) (FBS), to which a cocktail was added containing […] isobuthylmethylxanthine (Sigma Aldrich, CAT number: I 5879), 0.17 nM insulin (Sigma Aldrich, CAT number: I 9278) and 250 nM dexamethasone (Sigma Aldrich, CAT number: 861871). […]
[…] The sediment was dissolved in 70 μl of lysis-buffer and glucose uptake was assessed by scintillation counting measuring 30 μl of the sample with a Beckman LS 5000 TD counter in counts per minute (CPM) for five minutes each, using an average activity as the outcome. Samples were frozen overnight at −70° C. and protein concentration was measured using a Hitachi spectrophotometer. […]

3T3-L1 adipocytes [2] = assay: Insulin-dependent uptake of deoxy-D-glucose 2-[1 2-3H(N)] into 3T3-L1 adipocytes; format: cell-based, mouse
Method: Primary cultures of mouse embryo fibroblasts (3T3-L1) were purchased from ATCC (Manassas, US). Early passages of 3T3-L1 fibroblasts were cultured in Dulbecco's modified Eagle medium ((DMEM, Invitrogen, CAT number: 41966-029; Sigma Aldrich CAT number: D6046) supplemented with 10% Fetal Bovine Serum (Gibco, CAT number: 16170-078), 100 U/ml penicillin and 0.1 mg/ml streptomycin (Gibco, CAT number: 15070-063) and 398 nM p-, m-, or o-Tyr. DMEM contained 25 or 5 mM glucose (depending on the experiment), L-glutamine, and pyruvate. Cells were grown in a humidified incubator at 37° C. and 5% CO2. Differentiation medium consisted of DMEM supplemented with 10% Fetal Bovine Serum (FBS, Gibco, Csertex, Budapest, Hungary, CAT number: 10106-169) (FBS), to which a cocktail was added containing […] isobuthylmethylxanthine (Sigma Aldrich, CAT number: I 5879), 0.17 nM insulin (Sigma Aldrich, CAT number: I 9278) and 250 nM dexamethasone (Sigma Aldrich, CAT number: 861871). From Day 4 onward, cells were maintained in DMEM/10% FBS containing […] insulin with a media change every other day until experimental treatments were initiated. For all treatments, cells were incubated overnight in serum-deprived medium after 90% of the cell population reached the adipocyte phenotype.
Cells were incubated in glucose free DMEM (Gibco, Csertex, Hungary) for 30 minutes, then treated with 2, 20, 200 or 400 nmol/l insulin for 100 minutes. Simultaneously 1 μCi/ml deoxy-D-glucose 2-[1 2-3H(N)] (3.7×104 Bq/ml) (Izotóp Intézet, Hungary) was added to the plates for 100 minutes Cells were scraped into the medium and centrifuged for 5 minutes at 1000 rpm. The sediment was dissolved in 70 μl of lysis-buffer and glucose uptake was assessed by scintillation counting measuring 30 μl of the sample with a Beckman LS 5000 TD counter in counts per minute (CPM) for five minutes each, using an average activity as the outcome. Samples were frozen overnight at −70° C. and protein concentration was measured using a Hitachi spectrophotometer. Results were normalized for protein content (Kaddai2009).

[3] = Body weight of rats during four-week tyrosine isomer supplementation; format: in vivo, Sprague-Dawley rats; conditions: four weeks, 1.76 mg/die, vs vehicle
Method: In further tyrosine isomer incorporation studies when effects of chronic oral p-Tyr and o-Tyr supplementation of rats on the o-Tyr level and insulin-induced relaxation of isolated arterial segments were studied, 18 Male Sprague-Dawley rats (5-6 week-old) were used. Rats were orally supplied with either 1.76 mg/die of p-Tyr or o-Tyr or vehicle during six days per week for four weeks. […] At the end of four-week treatment, HPLC and vasomotor studies were performed. In another group of rats, p-Tyr/o-Tyr supplementation was discontinued for four weeks (“washout” period), after which they were sacrificed for HPLC and vasomotor studies.

[4] = test system: thoracic and abdominal aorta, renal and femoral arteries; assay: Insulin-induced relaxation of isolated arterial segments after oral tyrosine isomer supplementation of rats; set-up: species or system Sprague-Dawley rats; conditions: proposed experiment: sustained in vivo supplementation with o-Tyr and p-Tyr together
[5] = Example p-Tyr treatment regimen in a patient (hsCRP, serum insulin, plasma glucose); format: in vivo, human
Method: As a further example, a patient attends medical control with a complaint of high blood pressure and increased stress at regular daily work in the last month. In this situation they relate an increased intake of coffein and sugar. Their high sensitivity C-reactive protein (hsCRP) level is measured as well as their serum insulin, and plasma glucose level.

[6] = cells grown 11 days on medium with the tyrosine isomer + 5 mM glucose, insulin 2, 20, 200, 400 nM

Compound	EPO-dependent Akt phosphorylation (Akt (PKB))	EPO-induced glucose uptake compared to the para-Tyr control (3T3-L1 adipocytes [1])	Insulin-induced glucose uptake at equimolar concentrations with p-Tyr (3T3-L1 adipocytes [2]; 72-72 mg/l m-Tyr or o-Tyr and p-Tyr, insulin 400 nM)	Insulin-dependent deoxy-D-glucose uptake (3T3-L1 adipocytes [2]; [6])	Baseline glucose uptake (3T3-L1 adipocytes [2]; cells grown on m-Tyr- or o-Tyr-containing medium (72 mg/l) for different time periods, no insulin)	Insulin-induced glucose uptake, time dependence (3T3-L1 adipocytes [2]; m-Tyr or o-Tyr 72 mg/l for different time periods, insulin 400 nM, time-dependent manner)	Ability to inhibit insulin-induced glucose uptake, dependence on concentration (3T3-L1 adipocytes [2]; m-Tyr or o-Tyr 2.25-72 mg/l with p-Tyr 72 mg/l, insulin 400 nM)	Body weight [3]	Diminished response to insulin in isolated arterial segments [4]	Insulin-dependent deoxy-D-glucose uptake (3T3-L1 adipocytes [2]; cells grown 11 days on p-Tyr + high glucose (25 mM))	Increase in glucose uptake by insulin (3T3-L1 adipocytes [2]; cells grown on p-Tyr and normal glucose, insulin 400 nM)	Excess concentration of p-Tyr over m-Tyr or o-Tyr in the media needed to compete (3T3-L1 adipocytes [2]; read from FIG. 3, insulin 400 nM)	hsCRP, serum insulin and plasma glucose level ([5]; p-Tyr 3 g daily (three times 1 g), after a month)	hsCRP, serum insulin and plasma glucose level ([5]; p-Tyr therapy continued, after a further month)
N[C@@H](Cc1ccccc1O)C(=O)O [o-Tyr, Ortho-L-tyrosine]	inhibited the normal increase in the Akt phosphorylation	inhibited	fully inhibit insulin-induced glucose uptake; also recorded: insulin had no effect on glucose uptake at all	no insulin effect could be verified	did not show a marked change	blocked	concentration-dependent	no difference between the groups						
N[C@@H](Cc1ccc(O)cc1)C(=O)O [p-Tyr, Para-L-tyrosine]				increasing concentrations of insulin lead to an increase in deoxy-D-glucose uptake				no difference between the groups	reversed	insulin failed to increase glucose uptake	approx. 2 fold	8-32 fold	somewhat diminished	returned to the medium normal range
